Results from ChEMBL document CHEMBL5678810.

What was measured:
[1] = target: Platelet-derived growth factor receptor alpha (Homo sapiens) (UniProt P16234); test: Inhibition of T7 bacteriophage fused human PDGFRA at 10 uM by KINOMEscan analysis relative to control
[2] = target: cAMP-dependent protein kinase catalytic subunit alpha (Homo sapiens) (UniProt P17612); test: Inhibition of T7 bacteriophage fused human PKAC-alpha at 10 uM by KINOMEscan analysis relative to control
[3] = target: Calcium/calmodulin-dependent protein kinase kinase 1 (Homo sapiens) (UniProt Q8N5S9); test: Inhibition of T7 bacteriophage fused human CAMKK1 at 10 uM by KINOMEscan analysis relative to control
[4] = target: Calcium/calmodulin-dependent protein kinase type 1G (Homo sapiens) (UniProt Q96NX5); test: Inhibition of T7 bacteriophage fused human CAMK1G at 10 uM by KINOMEscan analysis relative to control
[5] = target: Casein kinase II subunit alpha' (Homo sapiens) (UniProt P19784); test: Inhibition of T7 bacteriophage fused human CSNK2A2 at 10 uM by KINOMEscan analysis relative to control; values are per cent of control
[6] = system: Epidermal growth factor receptor (Homo sapiens), P00533 [UNDEFINED MUTATION]; test: Inhibition of T7 bacteriophage fused human EGFR L747/E749del/A750P mutant at 10 uM by KINOMEscan analysis relative to control; values are per cent of control
Epidermal growth factor receptor (Homo sapiens), P00533 [UNDEFINED MUTATION], sequence (P00533 whole entry, looked up, stated change not applied, the tested form may be a part, canonical isoform): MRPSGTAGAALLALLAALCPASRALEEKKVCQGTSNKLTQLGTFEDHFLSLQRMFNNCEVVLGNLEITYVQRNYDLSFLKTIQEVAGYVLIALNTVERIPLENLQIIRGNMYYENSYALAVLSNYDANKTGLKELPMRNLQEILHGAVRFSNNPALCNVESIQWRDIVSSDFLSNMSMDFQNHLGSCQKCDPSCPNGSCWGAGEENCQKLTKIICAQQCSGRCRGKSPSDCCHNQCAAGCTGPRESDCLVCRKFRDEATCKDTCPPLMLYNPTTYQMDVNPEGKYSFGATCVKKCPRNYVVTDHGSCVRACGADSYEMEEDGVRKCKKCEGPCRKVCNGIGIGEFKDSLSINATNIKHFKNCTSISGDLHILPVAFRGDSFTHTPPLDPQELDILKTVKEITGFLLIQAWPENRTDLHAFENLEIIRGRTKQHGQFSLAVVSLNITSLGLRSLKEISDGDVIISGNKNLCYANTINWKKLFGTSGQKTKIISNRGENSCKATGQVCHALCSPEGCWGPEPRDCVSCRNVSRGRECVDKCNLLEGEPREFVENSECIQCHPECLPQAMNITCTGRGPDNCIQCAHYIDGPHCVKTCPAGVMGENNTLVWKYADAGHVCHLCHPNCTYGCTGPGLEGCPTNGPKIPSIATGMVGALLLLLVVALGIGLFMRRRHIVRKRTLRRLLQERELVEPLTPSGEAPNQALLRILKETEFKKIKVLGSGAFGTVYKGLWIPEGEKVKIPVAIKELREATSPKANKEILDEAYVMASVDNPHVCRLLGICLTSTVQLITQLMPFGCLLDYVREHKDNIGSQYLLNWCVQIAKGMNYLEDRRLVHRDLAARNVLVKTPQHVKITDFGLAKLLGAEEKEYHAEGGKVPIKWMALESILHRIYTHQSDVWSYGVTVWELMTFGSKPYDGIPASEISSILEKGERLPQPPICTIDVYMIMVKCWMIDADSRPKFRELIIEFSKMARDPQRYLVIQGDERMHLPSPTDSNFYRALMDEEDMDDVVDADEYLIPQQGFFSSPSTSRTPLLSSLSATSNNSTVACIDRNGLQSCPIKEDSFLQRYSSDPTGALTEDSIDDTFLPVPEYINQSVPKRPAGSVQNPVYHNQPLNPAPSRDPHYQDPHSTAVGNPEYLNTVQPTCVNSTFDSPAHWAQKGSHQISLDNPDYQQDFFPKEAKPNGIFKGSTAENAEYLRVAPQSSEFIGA

[7] = target: Casein kinase I isoform gamma-3 (Homo sapiens) (UniProt Q9Y6M4); test: Inhibition of T7 bacteriophage fused human CSNK1G3 at 10 uM by KINOMEscan analysis relative to control; values are per cent of control
[8] = target: Mitogen-activated protein kinase kinase kinase 11 (Homo sapiens) (UniProt Q16584); test: Inhibition of T7 bacteriophage fused human MLK3 at 10 uM by KINOMEscan analysis relative to control
[9] = target: MAP kinase-interacting serine/threonine-protein kinase 1 (Homo sapiens) (UniProt Q9BUB5); test: Inhibition of T7 bacteriophage fused human MKNK1 at 10 uM by KINOMEscan analysis relative to control; values are per cent of control
MAP kinase-interacting serine/threonine-protein kinase 1 (Homo sapiens), sequence (Q9BUB5 whole entry, looked up, the tested form may be a part): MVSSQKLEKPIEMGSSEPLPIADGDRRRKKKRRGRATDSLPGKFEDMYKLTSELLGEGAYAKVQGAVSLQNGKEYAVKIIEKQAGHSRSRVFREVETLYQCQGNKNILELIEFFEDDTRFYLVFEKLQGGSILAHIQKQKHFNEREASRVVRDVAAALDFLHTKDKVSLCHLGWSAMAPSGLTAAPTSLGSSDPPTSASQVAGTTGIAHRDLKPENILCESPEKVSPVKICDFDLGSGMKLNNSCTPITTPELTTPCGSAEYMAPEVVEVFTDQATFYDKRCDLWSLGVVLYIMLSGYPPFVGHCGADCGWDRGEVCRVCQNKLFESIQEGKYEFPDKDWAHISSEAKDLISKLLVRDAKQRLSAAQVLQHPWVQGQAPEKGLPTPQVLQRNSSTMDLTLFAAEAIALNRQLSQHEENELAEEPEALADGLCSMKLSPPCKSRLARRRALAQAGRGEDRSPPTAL

[10] = system: Tyrosine-protein kinase ABL1 (Homo sapiens), P00519 [H396P]; test: Inhibition of T7 bacteriophage fused human nonphosphorylated ABL1 H396P mutant at 10 uM by KINOMEscan analysis relative to control
[11] = target: Serine/threonine-protein kinase Chk1 (Homo sapiens) (UniProt O14757); test: Inhibition of T7 bacteriophage fused human CHEK1 at 10 uM by KINOMEscan analysis relative to control
[12] = target: Mitogen-activated protein kinase 11 (Homo sapiens) (UniProt Q15759); test: Inhibition of T7 bacteriophage fused human p38-beta at 10 uM by KINOMEscan analysis relative to control; values are per cent of control
[13] = system: Hepatocyte growth factor receptor (Homo sapiens), P08581 [M1250T]; test: Inhibition of T7 bacteriophage fused human MET M1250T mutant at 10 uM by KINOMEscan analysis relative to control; values are per cent of control
[14] = target: Ephrin type-A receptor 5 (Homo sapiens) (UniProt P54756); test: Inhibition of T7 bacteriophage fused human EPHA5 at 10 uM by KINOMEscan analysis relative to control; values are per cent of control
[15] = target: Tyrosine-protein kinase JAK1 (Homo sapiens) (UniProt P23458); test: Inhibition of T7 bacteriophage fused human JAK1 JH1catalytic domain at 10 uM by KINOMEscan analysis relative to control
[16] = target: Death-associated protein kinase 1 (Homo sapiens) (UniProt P53355); test: Inhibition of T7 bacteriophage fused human DAPK1 at 10 uM by KINOMEscan analysis relative to control; values are per cent of control
[17] = target: Casein kinase I isoform alpha-like (Homo sapiens) (UniProt Q8N752); test: Inhibition of T7 bacteriophage fused human CSNK1A1L at 10 uM by KINOMEscan analysis relative to control
[18] = target: Serine/threonine-protein kinase 38-like (Homo sapiens) (UniProt Q9Y2H1); test: Inhibition of T7 bacteriophage fused human NDR2 at 10 uM by KINOMEscan analysis relative to control
Serine/threonine-protein kinase 38-like (Homo sapiens), sequence (Q9Y2H1 2-464 limits assumed): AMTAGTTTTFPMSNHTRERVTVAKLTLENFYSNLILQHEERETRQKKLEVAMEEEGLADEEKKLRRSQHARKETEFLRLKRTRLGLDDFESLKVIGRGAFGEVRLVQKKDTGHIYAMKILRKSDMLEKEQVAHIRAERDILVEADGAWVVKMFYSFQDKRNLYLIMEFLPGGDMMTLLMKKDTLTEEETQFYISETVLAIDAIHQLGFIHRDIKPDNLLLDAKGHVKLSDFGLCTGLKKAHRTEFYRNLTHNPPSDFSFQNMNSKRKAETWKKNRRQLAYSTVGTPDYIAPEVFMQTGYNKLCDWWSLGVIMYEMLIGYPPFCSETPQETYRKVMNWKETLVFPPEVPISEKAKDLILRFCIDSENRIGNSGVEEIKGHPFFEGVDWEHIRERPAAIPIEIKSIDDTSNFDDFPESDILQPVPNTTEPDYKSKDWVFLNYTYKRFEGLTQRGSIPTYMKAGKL

[19] = target: Epidermal growth factor receptor (Homo sapiens) (UniProt P00533); test: Inhibition of T7 bacteriophage fused human EGFR at 10 uM by KINOMEscan analysis relative to control; values are per cent of control
Epidermal growth factor receptor (Homo sapiens), sequence (P00533 whole entry, the tested form may be a part): as the sequence (P00533 whole entry, looked up, stated change not applied, the tested form may be a part, canonical isoform) above

[20] = target: Activin receptor type-1B (Homo sapiens) (UniProt P36896); test: Inhibition of T7 bacteriophage fused human ACVR1B at 10 uM by KINOMEscan analysis relative to control
[21] = target: Ribosomal protein S6 kinase alpha-2 (Homo sapiens) (UniProt Q15349); test: Inhibition of T7 bacteriophage fused human C-terminal RSK3 Kinase domain-2 at 10 uM by KINOMEscan analysis relative to control
[22] = system: Receptor-type tyrosine-protein kinase FLT3 (Homo sapiens), P36888 [UNDEFINED MUTATION]; test: Inhibition of T7 bacteriophage fused human FLT3 ITD mutant at 10 uM by KINOMEscan analysis relative to control
[23] = target: Myosin light chain kinase, smooth muscle (Homo sapiens) (UniProt Q15746); test: Inhibition of T7 bacteriophage fused human MYLK at 10 uM by KINOMEscan analysis relative to control; values are per cent of control
[24] = target: Mitogen-activated protein kinase kinase kinase 13 (Homo sapiens) (UniProt O43283); test: Inhibition of T7 bacteriophage fused human LZK at 10 uM by KINOMEscan analysis relative to control
[25] = target: Serine/threonine-protein kinase PLK1 (Homo sapiens) (UniProt P53350); test: Inhibition of T7 bacteriophage fused human PLK1 at 10 uM by KINOMEscan analysis relative to control
[26] = target: Mitogen-activated protein kinase kinase kinase 2 (Homo sapiens) (UniProt Q9Y2U5); test: Inhibition of T7 bacteriophage fused human MAP3K2 at 10 uM by KINOMEscan analysis relative to control; values are per cent of control
[27] = system: Mast/stem cell growth factor receptor Kit (Homo sapiens), P10721 [D816H]; test: Inhibition of T7 bacteriophage fused human KIT D816H mutant at 10 uM by KINOMEscan analysis relative to control
Mast/stem cell growth factor receptor Kit (Homo sapiens), P10721 [D816H], sequence (P10721 whole entry D816H, the tested form may be a part): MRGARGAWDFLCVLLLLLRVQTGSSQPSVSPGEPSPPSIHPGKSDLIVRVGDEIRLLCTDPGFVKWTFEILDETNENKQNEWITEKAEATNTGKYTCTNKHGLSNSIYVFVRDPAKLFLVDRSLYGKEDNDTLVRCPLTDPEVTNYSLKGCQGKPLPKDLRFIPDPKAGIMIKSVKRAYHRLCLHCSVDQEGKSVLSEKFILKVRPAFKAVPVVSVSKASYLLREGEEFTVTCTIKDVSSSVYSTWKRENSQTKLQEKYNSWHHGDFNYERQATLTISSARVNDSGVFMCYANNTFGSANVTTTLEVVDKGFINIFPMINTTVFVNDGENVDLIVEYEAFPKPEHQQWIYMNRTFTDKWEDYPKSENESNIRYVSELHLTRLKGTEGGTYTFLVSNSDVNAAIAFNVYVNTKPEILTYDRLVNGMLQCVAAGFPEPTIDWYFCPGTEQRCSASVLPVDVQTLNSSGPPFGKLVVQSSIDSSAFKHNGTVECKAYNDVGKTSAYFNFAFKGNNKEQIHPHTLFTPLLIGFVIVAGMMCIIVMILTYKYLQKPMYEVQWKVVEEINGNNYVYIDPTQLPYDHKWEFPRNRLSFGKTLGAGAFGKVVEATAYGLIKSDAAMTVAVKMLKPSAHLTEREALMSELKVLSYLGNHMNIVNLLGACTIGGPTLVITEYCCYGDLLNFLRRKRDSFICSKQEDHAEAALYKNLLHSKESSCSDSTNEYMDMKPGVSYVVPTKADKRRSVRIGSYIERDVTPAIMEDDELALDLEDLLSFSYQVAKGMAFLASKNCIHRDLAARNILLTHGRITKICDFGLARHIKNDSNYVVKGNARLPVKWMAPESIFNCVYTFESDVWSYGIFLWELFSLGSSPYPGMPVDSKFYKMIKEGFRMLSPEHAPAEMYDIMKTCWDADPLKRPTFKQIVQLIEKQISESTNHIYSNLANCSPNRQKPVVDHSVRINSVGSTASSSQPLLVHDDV

[28] = target: Cyclin-dependent kinase-like 5 (Homo sapiens) (UniProt O76039); test: Inhibition of T7 bacteriophage fused human CDKL5 at 10 uM by KINOMEscan analysis relative to control
[29] = target: Serine/threonine-protein kinase B-raf (Homo sapiens) (UniProt P15056); test: Inhibition of T7 bacteriophage fused human BRAF at 10 uM by KINOMEscan analysis relative to control
Serine/threonine-protein kinase B-raf (Homo sapiens), sequence (P15056 whole entry, the tested form may be a part): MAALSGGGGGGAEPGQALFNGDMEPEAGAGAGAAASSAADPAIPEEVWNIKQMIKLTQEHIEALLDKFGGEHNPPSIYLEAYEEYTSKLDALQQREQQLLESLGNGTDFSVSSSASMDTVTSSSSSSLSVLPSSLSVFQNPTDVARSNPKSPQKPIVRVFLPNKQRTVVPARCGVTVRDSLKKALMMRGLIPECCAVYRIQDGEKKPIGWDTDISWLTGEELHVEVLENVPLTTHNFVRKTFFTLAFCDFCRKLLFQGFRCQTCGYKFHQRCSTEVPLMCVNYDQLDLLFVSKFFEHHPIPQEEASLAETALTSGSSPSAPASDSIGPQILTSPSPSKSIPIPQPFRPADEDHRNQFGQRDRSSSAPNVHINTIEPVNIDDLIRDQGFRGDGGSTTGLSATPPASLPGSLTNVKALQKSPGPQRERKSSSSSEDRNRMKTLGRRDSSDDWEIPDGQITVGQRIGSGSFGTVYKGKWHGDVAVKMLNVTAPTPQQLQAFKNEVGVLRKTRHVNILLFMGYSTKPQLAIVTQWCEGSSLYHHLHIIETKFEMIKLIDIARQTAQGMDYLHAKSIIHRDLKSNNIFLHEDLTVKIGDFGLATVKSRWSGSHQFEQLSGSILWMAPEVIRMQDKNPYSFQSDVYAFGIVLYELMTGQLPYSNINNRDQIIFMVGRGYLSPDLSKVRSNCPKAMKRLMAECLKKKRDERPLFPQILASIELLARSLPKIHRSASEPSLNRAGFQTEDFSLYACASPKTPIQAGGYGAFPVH

COc1cc(N2CCC(N3CCN(C)CC3)CC2)ccc1Nc1ncc2c(n1)N(C)c1ccccc1C(=O)N2C
inhibition [1]: 100%
inhibition [2]: 100%
inhibition [3]: 73%
inhibition [4]: 74%
residual activity [5]: 93%
residual activity [6]: 78%
residual activity [7]: 93%
inhibition [8]: 100%
residual activity [9]: 50%
inhibition [10]: 100%
inhibition [11]: 100%
residual activity [12]: 60%
residual activity [13]: 96%
residual activity [14]: 95%
inhibition [15]: 100%
residual activity [16]: 73%
inhibition [17]: 100%
inhibition [18]: 100%
residual activity [19]: 84%
inhibition [20]: 100%
inhibition [21]: 7.5%
inhibition [22]: 100%
residual activity [23]: 8.7%
inhibition [24]: 100%
inhibition [25]: 0.7%
residual activity [26]: 97%
inhibition [27]: 100%
inhibition [28]: 100%
inhibition [29]: 81%
